The values that follow come from PubChem BioAssay (NCI).

Common to all, as to experiment: NCI-60 cell line screen, 48 h
Assay [1] concerns HL-60(TB) leukemia.
The test system of assay [2] is HOP-92 NSCLC.
Assay [3] relates to NCI-H23 lung.
Assay [4] relates to OVCAR-4 ovarian.
The subject of assay [5] is OVCAR-5 ovarian.
The test system of assay [6] is RXF 393 renal.
In assay [7] the test system is SK-MEL-5 melanoma.
Assay [8] relates to SK-MEL-2 melanoma.
Assay [9] relates to T-47D breast.

The structures appear in SMILES notation.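 Values below derive from 48-hour exposures of cells grown in 96-well plates, with endpoints linearly interpolated between the two concentrations bracketing the appropriate inhibition level. At the GI50, growth is halved. TGI denotes the concentration required for complete inhibition of growth.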

With `N#CC(C#N)=C1SCC(=O)CS1`, the TGI in assay [1], in assay [2], in [3], in [4], in assay [5] and in [6] was greater than 100 µM throughout. Further, the TGI in assay [7] was greater than 100 µM.

Consider `CC1(C)C2C/C(=C\c3ccccc3)C(=O)C1C2` (stereo not given), for which the TGI in assay [1], in assay [2], in assay [3], in [4], in assay [5] and in [6] was greater than 100 µM each time. The TGI in assay [8] and in assay [7] was greater than 100 µM each time.

Regarding `Cn1c(=O)c(C(=O)NC(=O)OCc2ccccc2)cn(CCSCCOC(=O)NCCCCCCNC(=O)OCCSCCn2cc(C(=O)NC(=O)OCc3ccccc3)c(=O)n(C)c2=O)c1=O`, the TGI in assay [1] is greater than 100 µM; in assay [2], 87.5 µM; in assay [3], greater than 100 µM; in assay [4] it was greater than 100 µM; in [5], greater than 100 µM; in assay [6], greater than 100 µM. The TGI in [8] and in [7] was greater than 100 µM in each case.

As for `Cc1cccc2c1C/C(=C1\CCc3c(C)cccc31)C2=O`, the TGI in [1], in assay [3], in assay [4], in assay [5], in [6] and in assay [8] was greater than 100 µM throughout. This molecule displayed a TGI in assay [7] greater than 100 µM.

As for `Cc1cc(=O)oc2cc(OCc3nc4ccccc4c(=O)[nH]3)ccc12`, the TGI in assay [1], in [2], in assay [3], in assay [4], in assay [5] and in [6] was greater than 100 µM throughout. The TGI in assay [8] and in [7] was greater than 100 µM each time.

As for `CCOc1ccccc1NC(=O)C1=C(C)NC(C)=C(C(=O)Nc2ccccc2OCC)C1c1ccc(NC(C)=O)cc1`, the TGI in assay [1], in [2], in assay [3], in assay [4], in [5] and in [6] was greater than 100 µM each time. Moreover, the figures for the TGI in assay [8] and in [7] were 58.6 µM and greater than 100 µM, respectively.

As to `Cc1cccc2c1C(=O)OC2(C)c1cccc2ccccc12` (stereo not given), the TGI in assay [1] was 46.2 µM; in assay [2], 61.4 µM; in [3], greater than 100 µM; in [4], 67.4 µM; in [5], greater than 100 µM; in assay [6] it was 84.6 µM. For the same molecule, the TGI in [8] is greater than 100 µM; in [7] it was 45.3 µM.

As to `C/C(=C\CC[C@]1(C)OC(C)(C)OC1CC/C(C)=C/CO[Si](c1ccccc1)(c1ccccc1)C(C)(C)C)CC/C=C/CO[Si](C)(C)C(C)(C)C` (stereo not given in full), the TGI in assay [1], in [2], in assay [3], in assay [4], in [5] and in assay [6] was greater than 100 µM throughout. Further, the TGI in [8] and in assay [7] was greater than 100 µM throughout.

Regarding `c1ccc(SC(CCCCOC2CCCCO2)Sc2ccccc2)cc1` (stereo not given), the TGI in assay [1] was 47.5 µM; in [2], greater than 100 µM; in assay [3] it was greater than 100 µM; in assay [4], greater than 100 µM; in assay [5], greater than 100 µM; in assay [6] it was greater than 100 µM. In addition, the TGI in assay [8] and in assay [7] was greater than 100 µM throughout.

As to `CC(=O)c1c[nH]cc1CO`, the TGI in assay [1], in assay [2], in assay [3], in assay [5], in [6] and in assay [8] was greater than 10 µM each time. Also, the TGI in assay [7] and in [9] was greater than 10 µM throughout.

As for `Cc1ccc(/C=C2\CCCC\C2=N\O)cc1`, the TGI in [1] is 30.7 µM; in assay [3], greater than 100 µM; in assay [4] it was greater than 100 µM; in assay [7] it was greater than 100 µM.

`C[CH2][Sn]([CH2]C)([O]C(=O)c1cccc(F)c1)[O][Sn]([CH2]C)([CH2]C)[O]C(=O)c1cccc(F)c1`: the GI50 was 26.6 µM in [1]; 16.5 µM in [2]; 16.6 µM in [3]; 22.8 µM in assay [4]; 25.4 µM in assay [5]; 14.5 µM in assay [6]. Also, the GI50 in assay [8] is 16.4 µM; in [7] it was 31.7 µM. The TGI in [1] is 96.5 µM; in assay [2], 30.1 µM; in assay [3], 30.8 µM; in assay [4], 46.7 µM; in assay [5] it was 50.9 µM; in [6] it was 27.7 µM. Moreover, the TGI was 30.3 µM in assay [8] and greater than 100 µM in assay [7].

On to `CC1=Nn2c(nnc2-c2ccc(N)cc2)NC(C)(C)C1`, for which the TGI in [1], in [2], in assay [3], in [4], in [5] and in [8] was greater than 100 µM each time. In assay [7], the TGI is greater than 100 µM.

Regarding `O=C(/C=C1/NC(=O)CS1)Nc1ccccc1`, the TGI in [1], in assay [2], in [3], in assay [4], in assay [5] and in assay [6] was greater than 100 µM each time. Moreover, the TGI in [8] and in assay [7] was greater than 100 µM throughout.

Regarding `O=C1C[C@@H]2CCCC[C@@H]2C12SCCS2`, the TGI in assay [1], in [3], in assay [4], in assay [5], in assay [6] and in assay [8] was greater than 100 µM throughout. Further, in assay [7], the TGI was greater than 100 µM.
